Experimental data taken from ChEMBL document CHEMBL1132639, “2-Amino-4-benzyl-4,5,6,7-tetrahydrothiazolo[5,4-c]pyridines: novel selective beta3-adrenoceptor agonists” (J Med Chem, 1999).
Values belong to the compound of their own block, whether it stands above or below them. Active and inactive are the calls of the source. The rule behind the calls is not given here.

Columns and labels:
[1] = molecular target: Beta-2 adrenergic receptor (Homo sapiens) (UniProt P07550); conditions: ovary
[2] = molecular target: Beta-1 adrenergic receptor (Homo sapiens) (UniProt P08588); conditions: ovary
Chain of Beta-1 adrenergic receptor (Homo sapiens) (P08588 whole entry, looked up): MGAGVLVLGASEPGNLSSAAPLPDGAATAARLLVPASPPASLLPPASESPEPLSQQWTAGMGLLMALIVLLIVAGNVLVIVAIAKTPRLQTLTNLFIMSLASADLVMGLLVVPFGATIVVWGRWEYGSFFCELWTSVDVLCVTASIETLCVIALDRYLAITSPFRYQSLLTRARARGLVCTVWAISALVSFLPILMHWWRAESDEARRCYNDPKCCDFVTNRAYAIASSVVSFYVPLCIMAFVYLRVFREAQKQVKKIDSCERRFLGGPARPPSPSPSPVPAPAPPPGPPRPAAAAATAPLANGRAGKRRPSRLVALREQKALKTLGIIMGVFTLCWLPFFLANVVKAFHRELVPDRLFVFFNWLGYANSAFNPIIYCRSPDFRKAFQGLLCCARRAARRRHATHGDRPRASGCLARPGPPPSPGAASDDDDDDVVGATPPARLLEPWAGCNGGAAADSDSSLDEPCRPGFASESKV
Description: Drug concentration which produces cAMP response equal to 50% of its maximal response against human beta-1-adrenoceptor in chinese hamster ovary cells was determined

[3] = molecular target: T1, Beta-3 adrenergic receptor (Homo sapiens, UniProt P13945); conditions: ovary
Target sequence in this assay (P13945 whole entry, looked up): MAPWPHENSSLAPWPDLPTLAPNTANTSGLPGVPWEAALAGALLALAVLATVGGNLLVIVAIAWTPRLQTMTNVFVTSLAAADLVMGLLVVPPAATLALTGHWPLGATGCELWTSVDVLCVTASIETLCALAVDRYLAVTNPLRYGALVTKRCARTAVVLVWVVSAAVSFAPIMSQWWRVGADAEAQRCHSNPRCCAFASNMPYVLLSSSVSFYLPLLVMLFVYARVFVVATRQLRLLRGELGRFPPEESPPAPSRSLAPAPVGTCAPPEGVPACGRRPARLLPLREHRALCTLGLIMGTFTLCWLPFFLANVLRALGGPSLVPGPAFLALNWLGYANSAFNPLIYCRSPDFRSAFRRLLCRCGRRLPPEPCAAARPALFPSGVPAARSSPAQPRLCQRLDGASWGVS
Description: Drug concentration which produces cAMP response equal to 50% of its maximal response against human beta-3-adrenoceptor expressed in chinese hamster ovary cells was determined

[4] = molecular target: Beta-2 adrenergic receptor (Homo sapiens) (UniProt P07550); experiment: Drug concentration which produces cAMP response equal to 50% of its maximal response against human beta-2-adrenoceptor in chinese hamster ovary cells was determined; Not active; type: functional, cell-based
[5] = molecular target: Beta-1 adrenergic receptor (Homo sapiens) (UniProt P08588); conditions: ovary; remark: listed apart in the source
[6] = molecular target: T1, Beta-3 adrenergic receptor; experiment: Drug concentration which produces cAMP response equal to 50% of its maximal response against human beta-3-adrenoceptor in chinese hamster ovary cells was determined; Not active; type: functional, cell-based
Target sequence in this assay (P13945 whole entry, looked up): as above

[7] = molecular target: T1, Beta-3 adrenergic receptor; experiment: Binding Affinity against human Beta-3 adrenergic receptor expressed in Chinese hamster ovary(CHO) cells was measured by using [125I]ICYP radioligand; type: cell-based
Target sequence in this assay (P13945 whole entry): as the sequence (P13945 whole entry, looked up) above

[8] = molecular target: T1, Beta-3 adrenergic receptor; experiment: Intrinsic activity expressed as the percentage of maximal analogue response relative to the maximal response(100%) of isoproterenol against human beta-3-adrenoceptor using CRE-LUC assay; type: functional
Target sequence in this assay (P13945 whole entry, looked up): as above

[9] = molecular target: Beta-1 adrenergic receptor (Homo sapiens) (UniProt P08588); experiment: Intrinsic activity expressed as the percentage of maximal analogue response relative to the maximal response(100%) of isoproterenol against human beta-1-adrenoceptor using CRE-LUC assay; type: functional
[10] = molecular target: Beta-2 adrenergic receptor (Homo sapiens) (UniProt P07550)
[11] = molecular target: T1, Beta-3 adrenergic receptor; experiment: Drug concentration which produces cAMP response equal to 50% of its maximal response against human beta 3-adrenoceptor in chinese hamster ovary cells was determined; type: functional, cell-based
Target sequence in this assay (P13945 whole entry, looked up): as above

[12] = molecular target: T1, Beta-3 adrenergic receptor; experiment: Drug concentration which produces a cAMP response equal to 50% of its maximal response against human beta-3-adrenoceptor using CRE-LUC assay; type: functional
Target sequence in this assay (P13945 whole entry, looked up): as above

[13] = molecular target: Beta-1 adrenergic receptor (Homo sapiens) (UniProt P08588)
[14] = molecular target: Beta-2 adrenergic receptor (Homo sapiens) (UniProt P07550); conditions: ovary; remark: listed apart in the source
[15] = molecular target: Beta-1 adrenergic receptor (Homo sapiens) (UniProt P08588); experiment: Intrinsic activity expressed as the percentage of maximal analogue response relative to the maximal response(100%) of isoproterenol against human beta-1-adrenoceptor; type: functional
[16] = molecular target: T1, Beta-3 adrenergic receptor; experiment: Intrinsic activity expressed as the percentage of maximal analogue response relative to the maximal response(100%) of isoproterenol against human beta-3-adrenoceptor; type: functional
Target sequence in this assay (P13945 whole entry, looked up): as above

Chain of Beta-2 adrenergic receptor (Homo sapiens) (P07550 whole entry, looked up): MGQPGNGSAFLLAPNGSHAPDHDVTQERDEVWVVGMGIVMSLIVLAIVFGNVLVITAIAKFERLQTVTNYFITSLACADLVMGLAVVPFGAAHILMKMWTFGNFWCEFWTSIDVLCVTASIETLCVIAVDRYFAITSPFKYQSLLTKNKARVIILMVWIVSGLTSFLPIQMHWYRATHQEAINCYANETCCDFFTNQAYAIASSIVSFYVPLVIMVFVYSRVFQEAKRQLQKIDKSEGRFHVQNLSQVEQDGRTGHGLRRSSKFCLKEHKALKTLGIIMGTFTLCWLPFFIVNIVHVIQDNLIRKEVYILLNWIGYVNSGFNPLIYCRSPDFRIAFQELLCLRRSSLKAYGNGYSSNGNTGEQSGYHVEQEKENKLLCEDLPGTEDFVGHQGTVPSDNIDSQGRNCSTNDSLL

SMILES: COc1c(I)cc(CC2NCCc3nc(NC(C)=O)sc32)cc1I (stereo not drawn)
pKact [4]: inactive | pKact [5]: inactive | pKact [6]: inactive

SMILES: COc1cc(CCNCCc2cnc(N)s2)cc(OC)c1OC
pKact [4]: inactive | Intrinsic activity [8]: < 10 | Intrinsic activity [9]: < 10 | pKact [5]: inactive | pKact [6]: inactive

SMILES: COc1c(I)cc(CC2NCCc3nc(N)sc32)cc1I (stereo not drawn)
pKact [10]: inactive | pKact [11]: 6.95 | Intrinsic activity [8]: 62 | pKact [12]: 6.71 | pKact [5]: inactive | pKact [13]: inactive | pKact [14]: inactive

SMILES: COc1cc(CC2NCCc3nc(N)sc32)cc(OC)c1OC (stereo not drawn)
Intrinsic activity [15]: < 10 | pKact [4]: inactive | Intrinsic activity [16]: 54 | pKact [3]: 5.06 | pKact [5]: inactive

More lines, now with the values ahead:

pKact [1]: 8.33 | pKact [2]: 8.7 | pKact [3]: 8.6
SMILES: COc1cc(C[C@@H]2NCCc3cc(O)c(O)cc32)cc(OC)c1OC

pKact [3]: 7.37
SMILES: CC(C)NCC(O)c1ccc(O)c(O)c1 (stereo not drawn)

pKact [1]: 8.47 | Ki [7]: 21.4 nM | pKact [2]: 8.11 | pKact [3]: 8.76
SMILES: COc1c(I)cc(CC2NCCc3cc(O)c(O)cc32)cc1I (stereo not drawn)
